Calls of active or inactive are those of the source. No cut-off for these calls is given here.
What was measured:
[1] = target: Heat shock protein beta-1 (Homo sapiens) (UniProt P04792); experiment: Induction of abnormal recombinant HSP27 (unknown origin) dimerization after 3 hrs by Western blot analysis
[2] = tested on: NCI-H460; experiment: Potentiation of 17-AAG-induced apoptosis in human NCI-H460 cells assessed as early apoptotic cells at 10 uM after 24 hrs by Annexin V/propidium iodide double staining-based FACS analysis (reference value: 17.86%); assay type: functional
[3] = tested on: NCI-H460; experiment: Potentiation of 17-AAG-induced apoptosis in human NCI-H460 cells assessed as late apoptotic cells at 10 uM after 24 hrs by Annexin V/propidium iodide double staining-based FACS analysis (reference value: 7.53%); assay type: functional
[4] = tested on: NCI-H460; experiment: Induction of apoptosis in human NCI-H460 cells assessed as necrotic cells at 10 uM after 24 hrs by Annexin V/propidium iodide double staining-based FACS analysis (reference value: 1.29%); assay type: functional
[5] = tested on: NCI-H460; experiment: Potentiation of 17-AAG-induced antiproliferative activity in HSP27-knockdown human NCI-H460 cells at 10 uM after 24 hrs by EZ-CYTOX cell viability assay; assay type: functional, cell-based
[6] = tested on: NCI-H460; experiment: Induction of apoptosis in human NCI-H460 cells assessed as increase in cleaved PARP levels at 10 uM after 12 hrs by Western blot analysis; assay type: functional, cell-based
[7] = tested on: NCI-H460; experiment: Potentiation of 17-AAG-induced antiproliferative activity against human NCI-H460 cells at 10 uM after 24 hrs by EZ-CYTOX cell viability assay; assay type: functional, cell-based
[8] = target: Heat shock protein beta-1 (Homo sapiens) (UniProt P04792); experiment: Induction of abnormal HSP27 dimerization in human NCI-H460 cells at 10 uM after 12 hrs by Western blot analysis; assay type: cell-based
[9] = tested on: NCI-H460; experiment: Potentiation of 17-AAG-induced apoptosis in human NCI-H460 cells assessed as necrotic cells at 10 uM after 24 hrs by Annexin V/propidium iodide double staining-based FACS analysis (reference value: 1.42%); assay type: functional
[10] = tested on: NCI-H460; experiment: Induction of apoptosis in human NCI-H460 cells assessed as late apoptotic cells at 10 uM after 24 hrs by Annexin V/propidium iodide double staining-based FACS analysis (reference value: 3.66%); assay type: functional
[11] = tested on: NCI-H460; experiment: Induction of apoptosis in human NCI-H460 cells assessed as increase in cleaved caspase-7 levels at 10 uM after 12 hrs by Western blot analysis; assay type: functional, cell-based
[12] = target: Heat shock protein beta-1 (Homo sapiens) (UniProt P04792); experiment: Induction of abnormal HSP27 dimerization in human NCI-H460 cells assessed as potentiation of 17-AAG-induced increase in cleaved PARP levels at 10 uM after 24 hrs by Western blot analysis; assay type: cell-based
[13] = target: Heat shock protein beta-1 (Homo sapiens) (UniProt P04792); experiment: Induction of abnormal HSP27 dimerization in human NCI-H460 cells assessed as potentiation of 17-AAG-induced increase in cleaved caspase-7 levels at 10 uM after 24 hrs by Western blot analysis; assay type: cell-based
[14] = tested on: NCI-H460; experiment: Induction of apoptosis in human NCI-H460 cells assessed as early apoptotic cells at 10 uM after 24 hrs by Annexin V/propidium iodide double staining-based FACS analysis (reference value: 3.84%); assay type: functional
[15] = target: Heat shock protein beta-1 (Homo sapiens) (UniProt P04792); experiment: Induction of abnormal HSP27 dimerization in human NCI-H460 cells at 10 uM co-treated with 17-AAG after 24 hrs by Western blot analysis; assay type: cell-based
[16] = target: Heat shock protein beta-1 (Homo sapiens) (UniProt P04792); experiment: Induction of abnormal HSP27 dimerization in human NCI-H460 cells assessed as potentiation of cisplatin-induced increase in cleaved caspase-7 levels at 10 uM after 24 hrs by Western blot analysis; assay type: cell-based
[17] = tested on: NCI-H460; experiment: Induction of apoptosis in human NCI-H460 cells assessed as late apoptotic cells at 10 uM after 24 hrs by Annexin V/propidium iodide double staining-based FACS analysis (reference value: 3.92%); assay type: functional
[18] = target: Heat shock protein beta-1 (Homo sapiens) (UniProt P04792); experiment: Induction of abnormal HSP27 dimerization in human NCI-H460 cells assessed as potentiation of cisplatin-induced increase in cleaved PARP levels at 10 uM after 24 hrs by Western blot analysis; assay type: cell-based
[19] = tested on: NCI-H460; experiment: Induction of apoptosis in human NCI-H460 cells assessed as necrotic cells at 10 uM after 24 hrs by Annexin V/propidium iodide double staining-based FACS analysis (reference value: 2.92%); assay type: functional
[20] = target: Heat shock protein beta-1 (Homo sapiens) (UniProt P04792); experiment: Induction of abnormal HSP27 dimerization in human NCI-H460 cells assessed as potentiation of 17-AAG-induced antiproliferative activity at 10 uM after 24 hrs by EZ-CYTOX cell viability assay; assay type: cell-based
[21] = tested on: NCI-H460; experiment: Induction of apoptosis in human NCI-H460 cells assessed as early apoptotic cells at 10 uM after 24 hrs by Annexin V/propidium iodide double staining-based FACS analysis (reference value: 2.83%); assay type: functional
[22] = target: Heat shock protein beta-1 (Homo sapiens) (UniProt P04792); experiment: Induction of abnormal HSP27 dimerization in human NCI-H460 cells assessed as potentiation of cisplatin-induced apoptosis by measuring late apoptotic cells at 10 uM after 24 hrs by Annexin V/propidium iodide double staining-based FACS analysis (reference value: 3.74%); assay type: cell-based
[23] = target: Heat shock protein beta-1 (Homo sapiens) (UniProt P04792); experiment: Induction of abnormal HSP27 dimerization in human NCI-H460 cells assessed as potentiation of 17-AAG-induced apoptosis by measuring necrotic cells at 10 uM after 24 hrs by Annexin V/propidium iodide double staining-based FACS analysis (reference value: 1.42%); assay type: cell-based
[24] = target: Heat shock protein beta-1 (Homo sapiens) (UniProt P04792); experiment: Induction of abnormal HSP27 dimerization in human NCI-H460 cells assessed as potentiation of cisplatin-induced antiproliferative activity at 10 uM after 24 hrs by EZ-CYTOX cell viability assay; assay type: cell-based
[25] = target: Heat shock protein beta-1 (Homo sapiens) (UniProt P04792); experiment: Induction of abnormal HSP27 dimerization in human NCI-H460 cells assessed as potentiation of cisplatin-induced apoptosis by measuring necrotic cells at 10 uM after 24 hrs by Annexin V/propidium iodide double staining-based FACS analysis (reference value: 2.26%); assay type: cell-based
[26] = target: Heat shock protein beta-1 (Homo sapiens) (UniProt P04792); experiment: Induction of abnormal HSP27 dimerization in human NCI-H460 cells assessed as potentiation of 17-AAG-induced apoptosis by measuring late apoptotic cells at 10 uM after 24 hrs by Annexin V/propidium iodide double staining-based FACS analysis (reference value: 7.53%); assay type: cell-based
[27] = target: Heat shock protein beta-1 (Homo sapiens) (UniProt P04792); experiment: Induction of abnormal HSP27 dimerization in human NCI-H460 cells assessed as potentiation of cisplatin-induced apoptosis by measuring early apoptotic cells at 10 uM after 24 hrs by Annexin V/propidium iodide double staining-based FACS analysis (reference value: 7.49%); assay type: cell-based
[28] = target: Heat shock protein beta-1 (Homo sapiens) (UniProt P04792); experiment: Induction of abnormal HSP27 dimerization in human NCI-H460 cells assessed as potentiation of 17-AAG-induced apoptosis by measuring early apoptotic cells at 10 uM after 24 hrs by Annexin V/propidium iodide double staining-based FACS analysis (reference value: 17.86%); assay type: cell-based
[29] = tested on: NCI-H460; experiment: Potentiation of cisplatin-induced apoptosis in human NCI-H460 cells assessed as late apoptotic cells at 10 uM after 24 hrs by Annexin V/propidium iodide double staining-based FACS analysis (reference value: 3.74%); assay type: functional
[30] = tested on: NCI-H460; experiment: Potentiation of cisplatin-induced apoptosis in human NCI-H460 cells assessed as early apoptotic cells at 10 uM after 24 hrs by Annexin V/propidium iodide double staining-based FACS analysis (reference value: 7.49%); assay type: functional
[31] = tested on: NCI-H460; experiment: Potentiation of cisplatin-induced apoptosis in human NCI-H460 cells assessed as necrotic cells at 10 uM after 24 hrs by Annexin V/propidium iodide double staining-based FACS analysis (reference value: 2.26%); assay type: functional

Chain of Heat shock protein beta-1 (Homo sapiens) (P04792 whole entry): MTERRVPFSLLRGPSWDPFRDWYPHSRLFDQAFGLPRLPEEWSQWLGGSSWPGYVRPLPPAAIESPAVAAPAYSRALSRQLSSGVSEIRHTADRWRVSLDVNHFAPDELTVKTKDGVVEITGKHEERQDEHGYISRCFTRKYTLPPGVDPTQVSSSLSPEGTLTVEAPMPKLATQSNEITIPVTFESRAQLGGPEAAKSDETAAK

SMILES	Activity [1]	Activity [2]	Activity [3]	Activity [4]	Activity [5]	Activity [6]	Activity [8]	Activity [9]	Activity [10]	Activity [11]	Activity [12]	Activity [13]	Activity [14]	Activity [15]	Activity [17]	Activity [19]	Activity [21]	other results
O=c1cc(-c2ccccc2)oc2cc(OCC3CO3)cc(O)c12 (configuration not stated)	inactive																	
O=c1c2ccccc2oc2cc(OCC3CS3)cc(OCC3CS3)c12 (configuration not stated)	Active	21.99%	20.69%	3.38%	Active	Active	Active	5.18%	8.13%	Active	Active	Active	8.67%	Active				Activity [7]: Active
O=c1cc(-c2ccccc2)oc2cc(OCC3CS3)cc(OCC3CS3)c12 (configuration not stated)	Active	10.78%	31.53%	11.71%	Active	Active	Active	10.12%	27.48%	Active	Active	Active	9.85%	Active				Activity [7]: Active
Cc1cc(=O)c2c(O)cc(OCC3CS3)cc2o1 (configuration not stated)	Active			1.97%	inactive	Active	Active		5.9%	Active	Active	Active	3.47%	Active	5.21%	1.89%	4.73%	Activity [16]: Active; Activity [18]: Active; Activity [20]: Active; Activity [22]: 4.52%; Activity [23]: 3.87%; Activity [24]: Active; Activity [25]: 2.11%; Activity [26]: 16.5%; Activity [27]: 9.47%; Activity [28]: 18.6%
O=c1cc(-c2ccccc2)oc2cc(OCC3CS3)cc(O)c12 (configuration not stated)	Active																	
Cc1cc(=O)c2c(OCC3CS3)cc(OCC3CS3)cc2o1 (configuration not stated)	Active			2.37%	inactive	Active	Active		4.5%	Active	Active	Active	3.49%	Active	3.53%	2.67%	6.25%	Activity [16]: Active; Activity [18]: Active; Activity [20]: Active; Activity [22]: 6.44%; Activity [23]: 5.37%; Activity [24]: Active; Activity [25]: 2.91%; Activity [26]: 13%; Activity [27]: 11.1%; Activity [28]: 18%
COc1cc(OCC2CS2)c2c(=O)c3ccccc3oc2c1 (configuration not stated)	inactive	6.62%	6.65%	0.6%	inactive			0.68%	4.04%		inactive	inactive	3.42%		4.27%	3.6%	3.41%	Activity [29]: 4.81%; Activity [30]: 7.29%; Activity [31]: 2.45%
O=c1cc(-c2ccccc2)oc2cc(OCC3CO3)cc(OCC3CO3)c12 (configuration not stated)	Active																	
